In brackets after ≈: the same amount, converted by molar mass.
What was measured:
Type in all cases: cell-based
Botrtyis cinerea (Bc) = assay: In vitro pathogen growth inhibition assay, Bc; conditions: 48 h, ≥90% growth inhibition; 48 hours; vs 2% DMSO control; read-out: Compound Concentration (ppm) sufficient for ≥90% inhibition of Bc
Summary of the method: (§1)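 Spores in 17% V8 liquid medium, or 1.5 mm Rs mycelial plugs in ¼ PDB, incubated with compound; final concentration checked by OD600 for precipitation. OD readings at 24 and 48 h, blank-subtracted, plus visual ratings; value is concentration giving ≥90% growth inhibition.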

[1] = system: Collectotrichum graminicola (Cg); assay: In vitro pathogen growth inhibition assay, Cg; conditions: 48 h, ≥90% growth inhibition; 48 hours; vs 2% DMSO control; read-out: Compound Concentration (ppm) sufficient for ≥90% inhibition of Cg
Summary of the method: as §1

Diplodia maydis (Dm) = assay: In vitro pathogen growth inhibition assay, Dm; conditions: Stenocarpella maydis, 48 h, ≥90% growth inhibition; 48 hours; vs 2% DMSO control; read-out: Compound Concentration (ppm) sufficient for ≥90% inhibition of Dm
Summary of the method: (§2)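 Value reported is the compound concentration reaching ≥90% growth inhibition, from OD readings at 24 and 48 h after blank subtraction, confirmed visually. Inoculum was spores diluted in 17% V8 medium, except Rs, using 1.5 mm mycelial plugs in ¼ PDB; actual compound concentration corrected via OD600.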

[2] = system: Fusarium moniliforme (Fm); assay: In vitro pathogen growth inhibition assay, Fm; conditions: Fusarium verticillioides; ≥90% growth inhibition; 48 hours; vs 2% DMSO control; read-out: Compound Concentration (ppm) sufficient for ≥90% inhibition of Fm
Summary of the method: as §1

[3] = system: Fusarium virguliforme (Fv); assay: In vitro pathogen growth inhibition assay, Fv; conditions: ≥90% growth inhibition, 48 hours, vs 2% DMSO control, read-out: Compound Concentration (ppm) sufficient for ≥90% inhibition of Fv
Summary of the method: as §2

[4] = system: Phytophthora capsici (Pc); assay: In vitro pathogen growth inhibition assay, Pc; conditions: 48 h, ≥90% growth inhibition, 48 hours, vs 2% DMSO control, read-out: Compound Concentration (ppm) sufficient for ≥90% inhibition of Pc
Summary of the method: as §2

Rhizoctonia solani (Rs) = assay: In vitro pathogen growth inhibition assay, Rs (mycelial plugs); conditions: Rhizoctonia solani, 48 h, ≥90% growth inhibition; mycelial plugs; 48 hours; vs 2% DMSO control; read-out: Compound Concentration (ppm) sufficient for ≥90% inhibition of Rs
Summary of the method: as §2

Septoria tritici (St) = assay: In vitro pathogen growth inhibition assay, St; conditions: Zymoseptoria tritici, 48 h, ≥90% growth inhibition; 48 hours; vs 2% DMSO control; read-out: Compound Concentration (ppm) sufficient for ≥90% inhibition of St
Summary of the method: as §1

IC90 (Botrtyis cinerea (Bc))	IC90 [1]	IC90 (Diplodia maydis (Dm))	IC90 [2]	IC90 [3]	IC90 [4]	IC90 (Rhizoctonia solani (Rs))	IC90 (Septoria tritici (St))	Structure (SMILES)
2 µg/mL (≈ 3.45 µM)	10 µg/mL (≈ 17.3 µM)	10 µg/mL (≈ 17.3 µM)	2 µg/mL (≈ 3.45 µM)	10 µg/mL (≈ 17.3 µM)	> 50 µg/mL	10 µg/mL (≈ 17.3 µM)	> 50 µg/mL	COc1ccccc1[C@H](Cn1c(=O)n([C@H](C)C(=O)N(C)C(C)C)c(=O)c2c(C)c(-n3nccn3)sc21)OCCC#N [Compound I-238]
2 µg/mL (≈ 3.46 µM)	2 µg/mL (≈ 3.46 µM)	2 µg/mL (≈ 3.46 µM)	0.4 µg/mL (≈ 0.691 µM)	2 µg/mL (≈ 3.46 µM)	> 50 µg/mL	2 µg/mL (≈ 3.46 µM)	≥ 50 µg/mL	COc1ccccc1[C@H](Cn1c(=O)n([C@H](C)C(=O)N(C)C(C)C)c(=O)c2c(C)c(-n3cccn3)sc21)OCCC#N [Compound I-242]
10 µg/mL (≈ 16.8 µM)	2 µg/mL (≈ 3.35 µM)	10 µg/mL (≈ 16.8 µM)	2 µg/mL (≈ 3.35 µM)	50 µg/mL (≈ 83.8 µM)	> 50 µg/mL	2 µg/mL (≈ 3.35 µM)	≥ 50 µg/mL	COc1ccc(F)cc1[C@H](Cn1c(=O)n([C@@H](C)C(=O)N(C)C(C)C)c(=O)c2c(C)c(-n3cccn3)sc21)OCCC#N [Compound I-243]
2 µg/mL (≈ 3.4 µM)	2 µg/mL (≈ 3.4 µM)	10 µg/mL (≈ 17 µM)	0.4 µg/mL (≈ 0.681 µM)	2 µg/mL (≈ 3.4 µM)	10 µg/mL (≈ 17 µM)	0.4 µg/mL (≈ 0.681 µM)	≥ 50 µg/mL	COc1ccc(F)cc1[C@H](Cn1c(=O)n([C@@H](C)C(=O)N(C)C(C)C)c(=O)c2c(C)c(-n3cccn3)sc21)OCCO [Compound I-244]
0.4 µg/mL (≈ 0.698 µM)	0.4 µg/mL (≈ 0.698 µM)	2 µg/mL (≈ 3.49 µM)	0.08 µg/mL (≈ 0.14 µM)	0.08 µg/mL (≈ 0.14 µM)	50 µg/mL (≈ 87.3 µM)	0.08 µg/mL (≈ 0.14 µM)	≥ 2 µg/mL	Cc1ccc(F)cc1[C@H](Cn1c(=O)n(C(C)(C)C(=O)NC(C)C)c(=O)c2c(C)c(-n3nccn3)sc21)OCCO [Compound I-245]
0.4 µg/mL (≈ 0.666 µM)	0.4 µg/mL (≈ 0.666 µM)	2 µg/mL (≈ 3.33 µM)	0.08 µg/mL (≈ 0.133 µM)	0.4 µg/mL (≈ 0.666 µM)	> 50 µg/mL	2 µg/mL (≈ 3.33 µM)	≥ 10 µg/mL	CCc1ccc(F)cc1[C@H](Cn1c(=O)n(C(C)(C)C(=O)NC(C)C)c(=O)c2c(C)c(-n3nccn3)sc21)OCCOC [Compound I-247]
2 µg/mL (≈ 3.41 µM)	2 µg/mL (≈ 3.41 µM)	≥ 10 µg/mL	0.4 µg/mL (≈ 0.682 µM)	0.4 µg/mL (≈ 0.682 µM)	> 50 µg/mL	10 µg/mL (≈ 17 µM)	≥ 10 µg/mL	COCCO[C@@H](Cn1c(=O)n(C(C)(C)C(=O)NC(C)C)c(=O)c2c(C)c(-n3nccn3)sc21)c1cc(F)ccc1C [Compound I-248]
2 µg/mL (≈ 3.34 µM)	2 µg/mL (≈ 3.34 µM)	≥ 10 µg/mL	2 µg/mL (≈ 3.34 µM)	2 µg/mL (≈ 3.34 µM)	> 50 µg/mL	10 µg/mL (≈ 16.7 µM)	> 50 µg/mL	COCCO[C@@H](Cn1c(=O)n(C(C)(C)C(=O)N2CCCC2)c(=O)c2c(C)c(-n3nccn3)sc21)c1cc(F)ccc1C [Compound I-249]
2 µg/mL (≈ 3.4 µM)	10 µg/mL (≈ 17 µM)	> 50 µg/mL	2 µg/mL (≈ 3.4 µM)	2 µg/mL (≈ 3.4 µM)	> 50 µg/mL	2 µg/mL (≈ 3.4 µM)	> 50 µg/mL	COc1ccc(F)cc1[C@H](Cn1c(=O)n([C@H](C)C(=O)N(C)C(C)C)c(=O)c2c(C)c(-n3cccn3)sc21)OCCO [Compound I-250]
2 µg/mL (≈ 3.27 µM)	> 50 µg/mL	≥ 10 µg/mL	2 µg/mL (≈ 3.27 µM)	> 50 µg/mL	> 50 µg/mL	> 50 µg/mL	> 50 µg/mL	COc1ccc(F)cc1[C@H](Cn1c(=O)n([C@@H](C)C(=O)NC(C)C)c(=O)c2c(C)c(-n3nccn3)sc21)OCC(C)(C)C#N [Compound I-254]
2 µg/mL (≈ 3.51 µM)	≥ 10 µg/mL	≥ 10 µg/mL	2 µg/mL (≈ 3.51 µM)	≥ 10 µg/mL	> 50 µg/mL	2 µg/mL (≈ 3.51 µM)	> 50 µg/mL	COc1ccc(F)cc1[C@H](Cn1c(=O)n([C@H](C)C(N)=O)c(=O)c2c(C)c(-n3nccn3)sc21)OCC(C)(C)C#N [Compound I-255]
